Measured values from patent publication US20250170248A1, “SMARCA DEGRADERS AND USES THEREOF” (Kymera Therapeutics, Inc., priority 2021, published 2025).

Experiments:
Format in all cases: cell-based
SMARCA4 = biological target: T1, SMARCA4 (Homo sapiens, UniProt P51532); assay: SMARCA4 Western blot degradation in MV4-11 cells; settings: for Dmax: MV4-11, MV4-11 cells, read-out: SMARCA4 MSD MV411 degradation 24 h: average Dmax %; for Dmax / DC50: 24 h; for DC50 / SMARCA4 MSD MV411 degradation 24 h: average Dmax %: MV4-11 cells; for DC50: read-out: SMARCA4 MSD MV411 degradation 24 h: Mean external-Abs DC50
T1 construct: SMARCA2/SMARCA4 protein degradation selectivity in MV4-11 cells; endogenous in cells; host or cells: MV4-11
Summary of the method: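 Protein levels quantified by LI-COR Western blot (beta-actin loading control) in RIPA lysates of MV4-11 cells after 24 h compound exposure. Degradation reported as DC50, Dmax % at 24 h and SMARCA2 vs SMARCA4 selectivity, each binned into letter codes.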

SMARCA2 [1] = biological target: T2, SMARCA2 (Homo sapiens, UniProt P51531); assay: SMARCA2 Western blot degradation in MV4-11 cells; set-up: SMARCA2/SMARCA4 protein degradation selectivity in MV4-11 cells; endogenous in cells; host or cells: MV4-11; settings: for Dmax: MV4-11, MV4-11 cells, read-out: SMARCA2 MSD MV411 degradation 24 h: average Dmax %; for Dmax / DC50 / SMARCA2 MSD MV411 degradation 24 h: average Dmax %: 24 h; for DC50 / Selectivity in MV411 / SMARCA2 MSD MV411 degradation 24 h: average Dmax %: MV4-11 cells; for DC50: read-out: SMARCA2 MSD MV411 degradation 24 h: Mean external-Abs DC50; for Selectivity in MV411: SMARCA2/4 selectivity
SMARCA2 [2] = biological target: T2, SMARCA2; assay: MSD SMARCA2 degradation in A549 cell line; settings: for Dmax: A549, A549 cells; for Dmax / DC50: 24 h; for DC50 / SMARCA2 MSD A549 degradation 24 h: Average Dmax %: A549 cells; for DC50: read-out: SMARCA2 MSD A549 degradation 24 h: Average external-Abs DC50
Summary of the method: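 SMARCA2 protein remaining after 24 h exposure of A549 cells (top concentration 1000 nM, 3-fold dilutions) was measured by MSD electrochemiluminescence immunoassay of cell lysates. Results are given as binned DC50 and maximal degradation (Dmax) codes.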

T2 sequence (P51531 whole entry): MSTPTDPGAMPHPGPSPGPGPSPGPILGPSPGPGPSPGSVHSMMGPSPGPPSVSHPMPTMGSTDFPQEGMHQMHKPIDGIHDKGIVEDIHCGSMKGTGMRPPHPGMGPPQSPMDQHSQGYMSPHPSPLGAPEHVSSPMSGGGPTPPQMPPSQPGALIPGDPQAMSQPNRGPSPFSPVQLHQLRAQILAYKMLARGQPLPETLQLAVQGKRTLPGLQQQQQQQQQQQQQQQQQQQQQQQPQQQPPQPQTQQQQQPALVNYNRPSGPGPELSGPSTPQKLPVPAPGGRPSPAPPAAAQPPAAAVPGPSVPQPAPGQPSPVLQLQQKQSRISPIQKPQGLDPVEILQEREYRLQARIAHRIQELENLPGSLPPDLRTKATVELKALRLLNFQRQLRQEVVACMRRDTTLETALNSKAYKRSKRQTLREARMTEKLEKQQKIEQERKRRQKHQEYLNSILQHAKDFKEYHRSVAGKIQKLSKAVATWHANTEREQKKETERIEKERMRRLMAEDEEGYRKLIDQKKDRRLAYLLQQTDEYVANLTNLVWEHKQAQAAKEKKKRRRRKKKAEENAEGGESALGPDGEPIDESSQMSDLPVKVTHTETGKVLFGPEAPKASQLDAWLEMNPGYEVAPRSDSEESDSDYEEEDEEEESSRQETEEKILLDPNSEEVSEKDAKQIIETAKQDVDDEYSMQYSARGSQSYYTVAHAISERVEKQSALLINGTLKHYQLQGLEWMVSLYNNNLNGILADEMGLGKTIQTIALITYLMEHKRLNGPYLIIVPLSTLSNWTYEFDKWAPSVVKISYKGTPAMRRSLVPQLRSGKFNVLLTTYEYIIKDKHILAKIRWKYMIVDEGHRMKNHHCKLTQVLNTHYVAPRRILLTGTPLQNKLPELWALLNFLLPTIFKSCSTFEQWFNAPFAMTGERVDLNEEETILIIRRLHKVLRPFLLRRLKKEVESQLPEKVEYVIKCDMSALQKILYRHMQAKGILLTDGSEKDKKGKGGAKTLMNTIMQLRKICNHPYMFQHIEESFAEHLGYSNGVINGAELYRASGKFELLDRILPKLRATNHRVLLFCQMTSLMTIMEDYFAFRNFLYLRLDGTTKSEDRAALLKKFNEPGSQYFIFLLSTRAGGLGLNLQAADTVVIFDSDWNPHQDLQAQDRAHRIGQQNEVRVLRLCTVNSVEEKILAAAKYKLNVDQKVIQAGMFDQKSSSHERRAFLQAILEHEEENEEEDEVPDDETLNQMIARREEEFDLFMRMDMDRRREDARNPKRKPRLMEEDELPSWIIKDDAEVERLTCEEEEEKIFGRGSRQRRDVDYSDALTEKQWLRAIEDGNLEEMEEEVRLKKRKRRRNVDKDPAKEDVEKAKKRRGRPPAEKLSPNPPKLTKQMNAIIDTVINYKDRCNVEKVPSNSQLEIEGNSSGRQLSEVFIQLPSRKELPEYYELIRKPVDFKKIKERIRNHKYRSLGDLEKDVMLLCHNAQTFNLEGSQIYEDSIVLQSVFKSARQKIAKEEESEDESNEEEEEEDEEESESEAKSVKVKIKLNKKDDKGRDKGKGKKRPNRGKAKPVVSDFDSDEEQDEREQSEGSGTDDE
T1 sequence (P51532 whole entry): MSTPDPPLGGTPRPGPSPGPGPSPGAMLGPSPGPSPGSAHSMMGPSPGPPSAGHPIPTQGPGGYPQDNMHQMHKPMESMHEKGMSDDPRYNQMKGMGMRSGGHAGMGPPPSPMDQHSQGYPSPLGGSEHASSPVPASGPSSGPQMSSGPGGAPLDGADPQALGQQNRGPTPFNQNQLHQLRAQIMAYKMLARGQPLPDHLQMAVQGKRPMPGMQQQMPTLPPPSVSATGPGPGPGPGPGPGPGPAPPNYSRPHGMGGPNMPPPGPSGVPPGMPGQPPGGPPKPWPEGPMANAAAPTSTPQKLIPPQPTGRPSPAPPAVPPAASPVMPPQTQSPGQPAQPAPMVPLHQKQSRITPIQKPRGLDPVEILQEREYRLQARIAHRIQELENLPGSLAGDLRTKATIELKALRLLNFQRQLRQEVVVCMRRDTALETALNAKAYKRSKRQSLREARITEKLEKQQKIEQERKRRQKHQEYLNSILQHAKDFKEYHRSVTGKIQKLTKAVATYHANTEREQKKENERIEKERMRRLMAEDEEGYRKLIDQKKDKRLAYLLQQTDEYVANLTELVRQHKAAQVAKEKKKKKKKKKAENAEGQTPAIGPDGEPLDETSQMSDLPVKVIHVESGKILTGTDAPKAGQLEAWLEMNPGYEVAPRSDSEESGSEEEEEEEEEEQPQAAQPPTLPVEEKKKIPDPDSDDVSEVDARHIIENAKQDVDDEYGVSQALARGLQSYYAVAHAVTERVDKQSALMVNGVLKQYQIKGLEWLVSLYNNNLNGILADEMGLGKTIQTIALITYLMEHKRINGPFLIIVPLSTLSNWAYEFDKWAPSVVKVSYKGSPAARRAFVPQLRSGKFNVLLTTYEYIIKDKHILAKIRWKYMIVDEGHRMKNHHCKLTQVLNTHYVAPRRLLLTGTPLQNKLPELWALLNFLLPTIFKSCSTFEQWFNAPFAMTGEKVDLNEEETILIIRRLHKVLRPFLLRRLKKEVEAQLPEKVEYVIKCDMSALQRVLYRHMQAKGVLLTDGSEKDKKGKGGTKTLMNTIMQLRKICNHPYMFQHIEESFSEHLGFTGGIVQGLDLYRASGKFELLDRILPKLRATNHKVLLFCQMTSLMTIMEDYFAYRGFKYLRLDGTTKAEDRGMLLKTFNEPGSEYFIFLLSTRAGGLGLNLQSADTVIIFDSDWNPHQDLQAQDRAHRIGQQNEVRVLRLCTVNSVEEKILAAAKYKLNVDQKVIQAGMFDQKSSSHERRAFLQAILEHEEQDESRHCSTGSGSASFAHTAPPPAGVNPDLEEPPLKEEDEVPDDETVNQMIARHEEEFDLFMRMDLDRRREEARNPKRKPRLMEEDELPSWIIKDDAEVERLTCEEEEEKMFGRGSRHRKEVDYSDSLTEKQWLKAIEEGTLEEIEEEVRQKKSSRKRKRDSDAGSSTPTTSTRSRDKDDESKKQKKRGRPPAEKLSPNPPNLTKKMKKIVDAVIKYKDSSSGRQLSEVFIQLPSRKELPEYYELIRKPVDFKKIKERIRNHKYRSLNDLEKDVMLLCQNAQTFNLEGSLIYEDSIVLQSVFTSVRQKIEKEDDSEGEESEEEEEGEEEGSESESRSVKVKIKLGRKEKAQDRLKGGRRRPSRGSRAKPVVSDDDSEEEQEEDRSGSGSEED

C#Cc1ccc(CNC(=O)[C@@H]2C[C@@H](O)CN2C(=O)[C@@H](N(CCOC)C(=O)N2CC3(CC(N4CCC(c5cnc(N6CCc7[nH]c8nnc(-c9ccccc9O)cc8c7[C@H]6C)nc5)CC4)C3)C2)C(C)(C)C)cc1 [I-140]
Dmax (SMARCA4): < 50%
DC50 (SMARCA4): > 100 nM
Dmax (SMARCA2 [1]): < 50%
DC50 (SMARCA2 [1]): > 100 nM
Selectivity in MV411 (SMARCA2 [1]): C (C (10-100 fold))
Dmax (SMARCA2 [2]): < 50%
DC50 (SMARCA2 [2]): > 100 nM

Cc1ncsc1-c1ccc(CNC(=O)[C@@H]2C[C@@H](O)CN2C(=O)C(c2cc(N3CCC4(CC3)CC(N3CCC(c5cnc(N6CCc7[nH]c8nnc(-c9ccccc9O)cc8c7[C@@H]6C)nc5)CC3)C4)no2)C(C)C)cc1 (single isomer, unassigned) [I-12]
Dmax (SMARCA4): > 90%
DC50 (SMARCA4): 10 to 100 nM
Dmax (SMARCA2 [1]): 70 to 90%
DC50 (SMARCA2 [1]): 10 to 100 nM
Selectivity in MV411 (SMARCA2 [1]): D (D (<10 fold))
Dmax (SMARCA2 [2]): 70 to 90%
DC50 (SMARCA2 [2]): 50 to 100 nM

Cc1ncsc1-c1ccc(CNC(=O)[C@@H]2C[C@@H](O)CN2C(=O)C(c2cc(OCCN3CCC(N4CCC(c5cnc(N6CCc7[nH]c8nnc(-c9ccccc9O)cc8c7[C@@H]6C)nc5)CC4)CC3)no2)C(C)C)cc1 (single isomer, unassigned) [I-41]
Dmax (SMARCA4): > 90%
DC50 (SMARCA4): 10 to 100 nM
Dmax (SMARCA2 [1]): > 90%
DC50 (SMARCA2 [1]): < 1 nM
Selectivity in MV411 (SMARCA2 [1]): D (D (<10 fold))
Dmax (SMARCA2 [2]): 70 to 90%
DC50 (SMARCA2 [2]): 50 to 100 nM

C#Cc1ccc(CNC(=O)[C@@H]2C[C@@H](O)CN2C(=O)[C@@H](NC(=O)[C@H]2CCC3(CC2)C[C@H](N2CCC(N4CCC(N5CCN6c7cc(-c8ccccc8O)nnc7NC[C@H]6C5)CC4)CC2)C3)C(C)(C)C)c(Cl)c1 (single isomer, unassigned) [I-221]
Dmax (SMARCA4): < 50%
DC50 (SMARCA4): > 100 nM
Dmax (SMARCA2 [1]): 50 to 70%
DC50 (SMARCA2 [1]): 10 to 100 nM
Selectivity in MV411 (SMARCA2 [1]): C (C (10-100 fold))
Dmax (SMARCA2 [2]): > 90%
DC50 (SMARCA2 [2]): > 100 nM

C#Cc1ccc(CNC(=O)[C@@H]2C[C@@H](O)CN2C(=O)[C@@H](NC(=O)[C@H]2CCC3(CC2)C[C@H](N2CCN(c4cnc(N5CCN6c7cc(-c8ccccc8O)nnc7NC[C@H]6C5)nc4)CC2)C3)C(C)(C)C)c(OC)c1 (single isomer, unassigned) [I-196]
SMARCA4 MSD MV411 degradation 24 h: average Dmax % (SMARCA4): C (C (50-70% degradation))
DC50 (SMARCA4): > 100 nM
SMARCA2 MSD MV411 degradation 24 h: average Dmax % (SMARCA2 [1]): B (B (>70-90% degradation))
DC50 (SMARCA2 [1]): 1 to 10 nM
Selectivity in MV411 (SMARCA2 [1]): C (C (10-100 fold))
SMARCA2 MSD A549 degradation 24 h: Average Dmax % (SMARCA2 [2]): A (A (>90% degradation))
DC50 (SMARCA2 [2]): 10 to 50 nM

Cc1ncsc1-c1ccc(CNC(=O)[C@@H]2C[C@@H](O)CN2C(=O)C(c2cc(OCCN3CCC(N4CCC(c5cnc(N6CCc7[nH]c8nnc(-c9ccccc9O)cc8c7[C@H]6C)nc5)CC4)CC3)no2)C(C)C)cc1 (stereo partly drawn) [I-36]
Dmax (SMARCA4): > 90%
DC50 (SMARCA4): 1 to 10 nM
Dmax (SMARCA2 [1]): > 90%
DC50 (SMARCA2 [1]): 1 to 10 nM
Selectivity in MV411 (SMARCA2 [1]): D (D (<10 fold))
Dmax (SMARCA2 [2]): > 90%
DC50 (SMARCA2 [2]): 10 to 50 nM

C#Cc1ccc(CNC(=O)[C@@H]2C[C@@H](O)CN2C(=O)[C@@H](NC(=O)[C@H]2CCC3(CC2)C[C@H](N2CCN(c4cnc(N5CCN6c7cc(-c8ccccc8O)nnc7NC[C@H]6C5)nc4)CC2)C3)C(C)(C)C)c(OC)c1 (single isomer, unassigned) [I-195]
Dmax (SMARCA4): 70 to 90%
DC50 (SMARCA4): 10 to 100 nM
Dmax (SMARCA2 [1]): > 90%
DC50 (SMARCA2 [1]): 1 to 10 nM
Selectivity in MV411 (SMARCA2 [1]): C (C (10-100 fold))
Dmax (SMARCA2 [2]): > 90%
DC50 (SMARCA2 [2]): 10 to 50 nM

Cc1ncsc1-c1ccc(CNC(=O)[C@@H]2C[C@@H](O)CN2C(=O)C(c2cc(N3CCC4(CC3)CC(N3CCC(c5cnc(N6CCc7[nH]c8nnc(-c9ccccc9O)cc8c7[C@H]6C)nc5)CC3)C4)no2)C(C)C)cc1 (stereo partly drawn) [I-13]
Dmax (SMARCA4): > 90%
DC50 (SMARCA4): 10 to 100 nM
Dmax (SMARCA2 [1]): > 90%
DC50 (SMARCA2 [1]): 1 to 10 nM
Selectivity in MV411 (SMARCA2 [1]): C (C (10-100 fold))
Dmax (SMARCA2 [2]): > 90%
DC50 (SMARCA2 [2]): 10 to 50 nM

C#Cc1ccc(CNC(=O)[C@@H]2C[C@@H](O)CN2C(=O)[C@@H](NC(=O)[C@H]2CCC3(CC2)C[C@H](N2CCC(c4cnc(N5CCN6c7cc(-c8ccccc8O)nnc7NC[C@H]6C5)nc4)CC2)C3)C(C)(C)C)c(OC)c1 (single isomer, unassigned) [I-125]
SMARCA4 MSD MV411 degradation 24 h: average Dmax % (SMARCA4): C (C (50-70% degradation))
DC50 (SMARCA4): > 100 nM
SMARCA2 MSD MV411 degradation 24 h: average Dmax % (SMARCA2 [1]): B (B (>70-90% degradation))
DC50 (SMARCA2 [1]): 1 to 10 nM
Selectivity in MV411 (SMARCA2 [1]): C (C (10-100 fold))
Dmax (SMARCA2 [2]): > 90%
DC50 (SMARCA2 [2]): < 10 nM

C#Cc1ccc(CNC(=O)[C@@H]2C[C@@H](O)CN2C(=O)[C@@H](NC(=O)[C@H]2CCC3(CC2)C[C@H](N2CCC(N4CC5(CC(N6CCN7c8cc(-c9ccccc9O)nnc8NC[C@H]7C6)C5)C4)CC2)C3)C(C)(C)C)cc1 (single isomer, unassigned) [I-237]
SMARCA4 MSD MV411 degradation 24 h: average Dmax % (SMARCA4): D (D (<50% degradation))
DC50 (SMARCA4): > 100 nM
SMARCA2 MSD MV411 degradation 24 h: average Dmax % (SMARCA2 [1]): B (B (>70-90% degradation))
DC50 (SMARCA2 [1]): 1 to 10 nM
Selectivity in MV411 (SMARCA2 [1]): B (B (>100-500 fold))
SMARCA2 MSD A549 degradation 24 h: Average Dmax % (SMARCA2 [2]): A (A (>90% degradation))
DC50 (SMARCA2 [2]): 50 to 100 nM

C#Cc1ccc([C@H](C)NC(=O)[C@@H]2C[C@@H](O)CN2C(=O)[C@@H](NC(=O)N2CC3(CC(N4CCC(c5cnc(N6CCc7[nH]c8nnc(-c9ccccc9O)cc8c7[C@H]6C)nc5)CC4)C3)C2)C(C)(C)C)c(OC)c1 [I-167]
Dmax (SMARCA4): 70 to 90%
DC50 (SMARCA4): > 100 nM
Dmax (SMARCA2 [1]): 70 to 90%
DC50 (SMARCA2 [1]): 1 to 10 nM
Selectivity in MV411 (SMARCA2 [1]): C (C (10-100 fold))
Dmax (SMARCA2 [2]): > 90%
DC50 (SMARCA2 [2]): 10 to 50 nM

C#Cc1ccc([C@H](CO)NC(=O)[C@@H]2C[C@@H](O)CN2C(=O)[C@@H](NC(=O)N2CC3(CC(N4CCC(c5cnc(N6CCc7[nH]c8nnc(-c9ccccc9O)cc8c7[C@H]6C)nc5)CC4)C3)C2)C(C)(C)C)cc1 [I-168]
Dmax (SMARCA4): > 90%
DC50 (SMARCA4): < 1 nM
Dmax (SMARCA2 [1]): > 90%
DC50 (SMARCA2 [1]): < 1 nM
Selectivity in MV411 (SMARCA2 [1]): C (C (10-100 fold))
Dmax (SMARCA2 [2]): > 90%
DC50 (SMARCA2 [2]): < 10 nM

C#Cc1ccc(CNC(=O)[C@@H]2C[C@@H](O)CN2C(=O)[C@@H](NC(=O)[C@H]2CCC3(CC2)C[C@H](N2CCC(N4CCC(N5CCN6c7cc(-c8ccccc8O)nnc7NC[C@H]6C5)CC4)CC2)C3)C(C)(C)C)c(OC)c1 (stereo partly drawn) [I-178]
SMARCA4 MSD MV411 degradation 24 h: average Dmax % (SMARCA4): C (C (50-70% degradation))
DC50 (SMARCA4): > 100 nM
SMARCA2 MSD MV411 degradation 24 h: average Dmax % (SMARCA2 [1]): B (B (>70-90% degradation))
DC50 (SMARCA2 [1]): 10 to 100 nM
Selectivity in MV411 (SMARCA2 [1]): B (B (>100-500 fold))
SMARCA2 MSD A549 degradation 24 h: Average Dmax % (SMARCA2 [2]): A (A (>90% degradation))
DC50 (SMARCA2 [2]): > 100 nM

C#Cc1ccc(CNC(=O)[C@@H]2C[C@@H](O)CN2C(=O)[C@@H](NC(=O)[C@H]2CC3(C2)C[C@H](N2CCC(N4CCC(N5CCN6c7cc(-c8ccccc8O)nnc7NC[C@H]6C5)CC4)CC2)C3)C(C)(C)C)c(OC)c1 (single isomer, unassigned) [I-231]
Dmax (SMARCA4): 50 to 70%
DC50 (SMARCA4): > 100 nM
Dmax (SMARCA2 [1]): > 90%
DC50 (SMARCA2 [1]): 1 to 10 nM
Selectivity in MV411 (SMARCA2 [1]): C (C (10-100 fold))
Dmax (SMARCA2 [2]): > 90%
DC50 (SMARCA2 [2]): 50 to 100 nM

C#Cc1ccc(CNC(=O)[C@@H]2C[C@@H](O)CN2C(=O)[C@@H](NC(=O)N2CCN(C[C@H]3CC[C@@H](N4CCC(N5CCN6c7cc(-c8ccccc8O)nnc7NC[C@H]6C5)CC4)CC3)CC2)C(C)(C)C)cc1 [I-255]
Dmax (SMARCA4): < 50%
DC50 (SMARCA4): > 100 nM
Dmax (SMARCA2 [1]): 70 to 90%
DC50 (SMARCA2 [1]): 10 to 100 nM
Selectivity in MV411 (SMARCA2 [1]): B (B (>100-500 fold))
Dmax (SMARCA2 [2]): 70 to 90%
DC50 (SMARCA2 [2]): > 100 nM
